In paper PMC4804635 (European journal of pharmacology, 2016):

What was measured:
[1] = biological target: ACE2 in human CD34+ cells (Homo sapiens, UniProt Q9BYF1); experiment: ACE2 activity assay in human CD34+ cell lysates; settings: for Imax at ACE2 in human CD34+ cells: cell lysate, 4 h, n=6
[2] = biological target: Recombinant Human ACE (rhACE) (Homo sapiens, UniProt P12821); experiment: ACE activity assay with recombinant human ACE; type: biochemical
[3] = biological target: Recombinant Human ACE2 (rhACE2) (Homo sapiens, UniProt Q9BYF1); experiment: ACE2 activity assay with recombinant human ACE2; type: biochemical
[4] = biological target: T1, ACE in murine heart (Mus musculus, UniProt P09470); experiment: ACE activity assay in murine heart homogenate; type: biochemical
T1 sequence (P09470 35-1312): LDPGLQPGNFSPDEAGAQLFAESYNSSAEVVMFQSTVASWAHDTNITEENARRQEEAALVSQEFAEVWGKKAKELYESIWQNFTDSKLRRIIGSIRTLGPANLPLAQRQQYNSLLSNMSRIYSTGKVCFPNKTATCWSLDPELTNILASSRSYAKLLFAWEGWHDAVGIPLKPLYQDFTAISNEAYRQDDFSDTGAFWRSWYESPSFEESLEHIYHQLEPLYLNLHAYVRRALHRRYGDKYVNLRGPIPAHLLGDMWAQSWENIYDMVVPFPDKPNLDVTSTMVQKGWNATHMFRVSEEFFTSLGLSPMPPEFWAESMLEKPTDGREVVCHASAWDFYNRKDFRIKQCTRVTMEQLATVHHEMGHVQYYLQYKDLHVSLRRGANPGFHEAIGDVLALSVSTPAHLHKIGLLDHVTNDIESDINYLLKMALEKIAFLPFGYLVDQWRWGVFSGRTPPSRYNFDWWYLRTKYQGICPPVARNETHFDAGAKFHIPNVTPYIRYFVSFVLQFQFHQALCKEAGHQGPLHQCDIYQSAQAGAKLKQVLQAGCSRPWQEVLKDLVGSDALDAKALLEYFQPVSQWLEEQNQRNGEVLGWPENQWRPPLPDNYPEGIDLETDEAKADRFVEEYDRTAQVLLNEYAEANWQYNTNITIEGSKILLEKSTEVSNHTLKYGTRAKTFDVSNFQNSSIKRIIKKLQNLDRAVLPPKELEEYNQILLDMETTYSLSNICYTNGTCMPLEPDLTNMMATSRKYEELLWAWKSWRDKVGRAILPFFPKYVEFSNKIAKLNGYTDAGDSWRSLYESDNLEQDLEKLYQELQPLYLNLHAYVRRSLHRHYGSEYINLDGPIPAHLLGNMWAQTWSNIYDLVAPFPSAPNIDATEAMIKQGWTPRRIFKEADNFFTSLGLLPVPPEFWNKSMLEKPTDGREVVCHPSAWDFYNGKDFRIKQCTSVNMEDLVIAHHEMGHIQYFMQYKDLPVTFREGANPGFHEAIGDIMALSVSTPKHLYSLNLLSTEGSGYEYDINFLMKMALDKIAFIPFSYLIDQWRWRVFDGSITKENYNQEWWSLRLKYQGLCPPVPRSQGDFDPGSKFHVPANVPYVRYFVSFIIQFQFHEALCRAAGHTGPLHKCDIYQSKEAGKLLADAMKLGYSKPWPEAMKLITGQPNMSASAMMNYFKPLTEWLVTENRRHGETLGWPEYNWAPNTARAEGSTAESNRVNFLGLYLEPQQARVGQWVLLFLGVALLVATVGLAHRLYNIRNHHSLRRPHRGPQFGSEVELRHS

[5] = biological target: ACE2 in murine heart (Mus musculus, UniProt Q8R0I0); experiment: ACE2 activity assay in murine heart homogenate; type: biochemical
[6] = biological target: Human MNC ACE2 (Homo sapiens, UniProt Q9BYF1); experiment: ACE2 activity assay in human mononuclear cell lysates; settings: for Imax at ACE2 in human MNCs: cell lysate 10 μg protein, 4 h
[7] = biological target: ACE in human CD34+ cells (Homo sapiens, UniProt P12821); experiment: ACE activity assay in human CD34+ cell lysates
[8] = biological target: T2, Murine MNC ACE (Mus musculus, UniProt P09470); experiment: ACE activity assay in murine mononuclear cell lysates
T2 sequence (P09470 35-1312): T1 sequence (P09470 35-1312)

[9] = biological target: Human MNC ACE (Homo sapiens, UniProt P12821); experiment: ACE activity assay in human mononuclear cell lysates; settings: cell lysate 10 μg protein, 4 h
[10] = biological target: Murine MNC ACE2 (Mus musculus, UniProt Q8R0I0); experiment: ACE2 activity assay in murine mononuclear cell lysates
[11] = recombinant enzyme, 50 μM substrate, pH 6.5, 1 h

Human MNC ACE2, sequence (Q9BYF1 18-805): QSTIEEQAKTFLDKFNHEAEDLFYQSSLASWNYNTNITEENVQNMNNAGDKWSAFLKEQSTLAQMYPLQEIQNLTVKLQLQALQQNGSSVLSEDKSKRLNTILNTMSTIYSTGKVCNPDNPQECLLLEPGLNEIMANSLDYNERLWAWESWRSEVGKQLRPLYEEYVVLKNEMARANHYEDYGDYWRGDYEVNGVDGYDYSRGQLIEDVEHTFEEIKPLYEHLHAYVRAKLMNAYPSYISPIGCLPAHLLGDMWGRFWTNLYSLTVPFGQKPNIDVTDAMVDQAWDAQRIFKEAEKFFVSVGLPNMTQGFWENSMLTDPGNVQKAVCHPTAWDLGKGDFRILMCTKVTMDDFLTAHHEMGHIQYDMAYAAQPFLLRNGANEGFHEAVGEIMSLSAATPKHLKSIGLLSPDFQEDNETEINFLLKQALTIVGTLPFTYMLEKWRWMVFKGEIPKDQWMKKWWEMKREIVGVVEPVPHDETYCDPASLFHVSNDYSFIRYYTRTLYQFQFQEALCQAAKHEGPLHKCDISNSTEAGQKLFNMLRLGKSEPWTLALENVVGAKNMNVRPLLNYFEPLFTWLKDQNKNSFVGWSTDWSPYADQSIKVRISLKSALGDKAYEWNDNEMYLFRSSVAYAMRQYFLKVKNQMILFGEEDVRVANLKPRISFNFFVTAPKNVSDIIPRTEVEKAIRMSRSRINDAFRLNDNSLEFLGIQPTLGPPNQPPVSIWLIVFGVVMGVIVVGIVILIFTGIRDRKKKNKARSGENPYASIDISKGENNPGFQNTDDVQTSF
ACE2 in human CD34+ cells, sequence (Q9BYF1 18-805): as above
Recombinant Human ACE2 (rhACE2), sequence (Q9BYF1 18-805): as above
Recombinant Human ACE (rhACE), sequence (P12821 30-1306): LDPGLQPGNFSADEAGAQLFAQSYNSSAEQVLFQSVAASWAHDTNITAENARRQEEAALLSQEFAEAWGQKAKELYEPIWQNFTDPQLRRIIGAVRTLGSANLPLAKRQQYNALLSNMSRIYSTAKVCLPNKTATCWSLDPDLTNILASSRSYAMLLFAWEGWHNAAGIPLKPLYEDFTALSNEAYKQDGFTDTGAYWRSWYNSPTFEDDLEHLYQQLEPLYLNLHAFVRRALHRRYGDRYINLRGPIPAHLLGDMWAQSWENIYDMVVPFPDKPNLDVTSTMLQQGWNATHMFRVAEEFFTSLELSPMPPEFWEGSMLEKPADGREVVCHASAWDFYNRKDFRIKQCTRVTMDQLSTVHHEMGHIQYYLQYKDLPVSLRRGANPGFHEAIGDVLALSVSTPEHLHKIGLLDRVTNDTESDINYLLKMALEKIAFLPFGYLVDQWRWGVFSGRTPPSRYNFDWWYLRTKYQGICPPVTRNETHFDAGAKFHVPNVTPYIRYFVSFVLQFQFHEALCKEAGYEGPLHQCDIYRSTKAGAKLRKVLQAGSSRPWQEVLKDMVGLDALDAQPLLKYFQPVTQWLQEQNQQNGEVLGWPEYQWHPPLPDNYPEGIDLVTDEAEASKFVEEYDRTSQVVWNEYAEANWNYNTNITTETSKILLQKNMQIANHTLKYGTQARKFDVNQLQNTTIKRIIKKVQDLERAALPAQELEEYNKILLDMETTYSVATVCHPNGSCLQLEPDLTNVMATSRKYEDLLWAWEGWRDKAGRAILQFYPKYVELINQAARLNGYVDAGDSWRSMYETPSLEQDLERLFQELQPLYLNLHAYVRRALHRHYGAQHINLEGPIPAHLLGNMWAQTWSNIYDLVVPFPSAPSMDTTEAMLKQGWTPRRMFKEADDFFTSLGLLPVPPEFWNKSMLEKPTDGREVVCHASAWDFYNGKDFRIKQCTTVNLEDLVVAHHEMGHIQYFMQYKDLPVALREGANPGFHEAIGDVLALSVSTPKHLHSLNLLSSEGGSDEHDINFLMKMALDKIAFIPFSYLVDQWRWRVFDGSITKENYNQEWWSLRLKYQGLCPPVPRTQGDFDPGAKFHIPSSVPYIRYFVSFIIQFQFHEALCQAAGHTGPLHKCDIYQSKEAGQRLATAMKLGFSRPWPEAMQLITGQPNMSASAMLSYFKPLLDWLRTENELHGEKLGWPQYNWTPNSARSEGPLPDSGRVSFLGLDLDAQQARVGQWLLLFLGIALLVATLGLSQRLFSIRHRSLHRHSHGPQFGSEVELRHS
ACE in human CD34+ cells, sequence (P12821 30-1306): as above
Murine MNC ACE2, sequence (Q8R0I0 18-805): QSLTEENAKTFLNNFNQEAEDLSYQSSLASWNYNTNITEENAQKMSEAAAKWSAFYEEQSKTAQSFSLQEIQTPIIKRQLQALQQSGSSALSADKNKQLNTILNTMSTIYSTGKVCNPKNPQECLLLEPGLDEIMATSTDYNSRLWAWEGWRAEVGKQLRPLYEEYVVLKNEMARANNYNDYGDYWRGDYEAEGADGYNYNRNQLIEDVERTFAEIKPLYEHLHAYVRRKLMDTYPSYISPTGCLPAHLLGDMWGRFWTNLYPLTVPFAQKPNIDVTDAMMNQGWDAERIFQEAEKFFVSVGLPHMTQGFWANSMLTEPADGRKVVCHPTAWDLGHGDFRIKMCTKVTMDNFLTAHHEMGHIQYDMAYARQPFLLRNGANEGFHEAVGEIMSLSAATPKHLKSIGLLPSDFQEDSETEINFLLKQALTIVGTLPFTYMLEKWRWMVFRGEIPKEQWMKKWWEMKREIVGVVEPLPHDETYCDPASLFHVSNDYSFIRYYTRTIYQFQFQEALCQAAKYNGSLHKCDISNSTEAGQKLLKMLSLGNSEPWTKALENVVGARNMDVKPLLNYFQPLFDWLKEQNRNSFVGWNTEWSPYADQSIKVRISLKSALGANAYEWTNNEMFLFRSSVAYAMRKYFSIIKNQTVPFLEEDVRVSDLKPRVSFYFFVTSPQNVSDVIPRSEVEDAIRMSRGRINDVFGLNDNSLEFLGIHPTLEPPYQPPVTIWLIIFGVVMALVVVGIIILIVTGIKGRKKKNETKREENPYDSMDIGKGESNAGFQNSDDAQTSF
Human MNC ACE, sequence (P12821 30-1306): as the sequence (P12821 30-1306) above

CC(C)C[C@H](N[C@@H](Cc1cncn1Cc1cc(Cl)cc(Cl)c1)C(=O)O)C(=O)O [isomer B, (2S)-2-[[(2S)-3-[3-[(3,5-dichlorophenyl)methyl]imidazol-4-yl]-1-hydroxy-1-oxopropan-2-yl]amino]-4-methylpentanoic acid]
IC50 [1]: 316 nM
Imax at ACE2 in human CD34+ cells [1]: 38±4%
Imax at ACE2 in human CD34+ cells ([1]; listed as MLN-4760-B): 38%
inhibition at 10 µM ([2]; read-out: inhibition of rhACE activity): 43%
Imax at rhACE [2, 11]: 46±1%
Ki [3]: 40 ± 5 nM
IC50 ([3]; IC50, Recombinant Human ACE2): 10 ± 6 nM
Maximum inhibition (Imax) of rhACE2 [3, 11]: 80±3%
IC50 [4]: 63100 nM
IC50 [5]: 251 nM
Ki [6]: 200 ± 10 nM
IC50 ([6]; IC50, Human ACE2 (human MNCs)): 500 ± 30 nM
Imax at ACE2 in human MNCs [6]: 63±2%
Imax at ACE2 in human MNCs ([6]; listed as MLN-4760-B): 63%
IC50 [7]: 12600 nM
Imax at ACE in human CD34+ cells ([7]; cell lysate, 4 h, n=6): 19±2%
IC50 [8]: 20000 nM
Imax at ACE in human MNCs [9]: 34±1%
Ki [10]: 2100 ± 200 nM
IC50 ([10]; pIC50 at ACE2 in murine MNCs, cell lysate, 4 h): 79.4 nM
